Measurements as given in patent publication US8268864B2, “Combination of anticholinergics and leukotriene receptor antagonists for the treatment of respiratory diseases” (Meda Pharma GmbH & Co. KG, priority 2005, dated 2012).

Experiments:
[1] = system: M1-M3 receptors; conditions: cited from earlier work
[2] = target: M3 muscarinic receptors (Homo sapiens, UniProt P20309); conditions: kinetics studies (Haddad et al.); cited from earlier work
[3] = inhaled; asthmatic subjects (Makker); cited from earlier work
[4] = system: chemotactic response in the guinea pig conjunctiva; conditions: guinea pig conjunctiva (Chan); cited from earlier work
[5] = system: TNFα release; conditions: R,R-glycopyrrolate alone, up to 10 μmol/l; LPS 100 ng/ml
From the text: (§1) Not only TNFα but also IL-2 plays an important role in inflammatory airway diseases. It is known that in certain forms of asthma (e.g. intrinsic and occupational), particular subsets of T cells produce, among others, IL-2 (Ricci et al.; J Investig Allergol Clin Immunol 1994; 4:214-20). Moreover, allergic patients have special populations of T cells which can be induced to secrete IL-2 (McHugh et al.; Clin Exp Allergy 1993; 23:137-44). […] Therefore, the influence of R,R-glycopyrrolate in combination with cysLT-receptor antagonists on TNFα- and interleukin(IL)-2-release was investigated by using human peripheral blood mononuclear cells (PBMCs). The investigations were approved by the University Ethics Committee according to the International Declarations of Helsinki and Tokyo.
(§2) PBMCs were isolated from heparinized blood samples of healthy donors by density gradient centrifugation. An equal volume of Hanks buffer (Life Technologies, Heidelberg, Germany) is added to heparinized whole blood samples. 15 ml Histopaque-1077 (Sigma, Deisenhofen, Germany) are overlayed with a maximum of 40 ml of blood/Hanks mixture were centrifuged for 30 min at room temperature (2000 rpm). A visible band containing PBMCs is transferred to a fresh tube and washed twice with Hanks-buffer. […]

[6] = system: IL-2 release; conditions: R,R-glycopyrrolate alone, up to 10 μmol/l; TPA 25 nM / ionomycin 1 μg/ml
From the text: as §1, §2

[7] = inhaled; asthmatic subjects (Christie); cited from earlier work
[8] = inhaled; asthmatic subjects (Lammers); cited from earlier work
[9] = system: IL-2 expression; conditions: ovalbumin-sensitized Brown Norway rats (Lin et al.); cited from earlier work
[10] = topically into the eyes; allergic conjunctivitis in rats (Papathanassiou et al.); cited from earlier work

Chain of M3 muscarinic receptors (P20309 whole entry): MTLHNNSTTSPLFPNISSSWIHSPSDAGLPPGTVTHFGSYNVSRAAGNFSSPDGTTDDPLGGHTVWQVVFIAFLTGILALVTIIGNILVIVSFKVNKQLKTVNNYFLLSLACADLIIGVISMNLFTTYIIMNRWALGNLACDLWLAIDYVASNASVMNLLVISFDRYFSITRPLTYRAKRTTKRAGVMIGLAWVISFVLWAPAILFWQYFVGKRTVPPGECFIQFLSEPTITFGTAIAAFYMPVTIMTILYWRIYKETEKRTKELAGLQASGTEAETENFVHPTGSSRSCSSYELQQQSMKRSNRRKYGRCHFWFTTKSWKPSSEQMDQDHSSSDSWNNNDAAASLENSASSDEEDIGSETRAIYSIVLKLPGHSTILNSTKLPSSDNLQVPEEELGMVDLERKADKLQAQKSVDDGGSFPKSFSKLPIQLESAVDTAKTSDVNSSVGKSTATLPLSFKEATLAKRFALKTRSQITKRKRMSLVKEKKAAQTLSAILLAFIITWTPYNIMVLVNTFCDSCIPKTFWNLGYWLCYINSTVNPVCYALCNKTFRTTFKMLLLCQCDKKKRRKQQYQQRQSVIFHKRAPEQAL

C[N+]1(C)CCC(OC(=O)C(O)(c2ccccc2)C2CCCC2)C1 (stereo not shown) [Glycopyrrolate]
selectivity in binding to the M1-M3 receptors [1]: no selectivity
dissociation from M3 muscarinic receptors [2]: dissociates slowly

COc1cc(C(=O)NS(=O)(=O)c2ccccc2C)ccc1Cc1cn(C)c2ccc(NC(=O)OC3CCCC3)cc12 [ICI 204,219]
protection against exercise-induced bronchoconstriction [3]: protected significantly

CN(C)C(=O)CCSC(SCCC(=O)O)c1cccc(/C=C/c2ccc3ccc(Cl)cc3n2)c1 (stereo not shown) [MK-571]
in vivo chemotactic response [4]: completely inhibited

C[N+]1(C)CC[C@@H](OC(=O)[C@](O)(c2ccccc2)C2CCCC2)C1.[Br-] [R,R-glycopyrrolate]
influence on LPS-induced TNFα release [5]: did not influence
influence on stimulated IL-2 release [6]: had no influence

O=C(O)CCS[C@H](c1ccccc1CCCCCCCCc1ccccc1)[C@@H](O)C(=O)O [pobilukast (SK&F 104353), pobilukast]
LT induced bronchoconstriction [7]: inhibited significantly

CN(C)C(=O)CCS[C@H](SCCC(=O)O)c1cccc(/C=C/c2ccc3ccc(Cl)cc3n2)c1 [verlukast (MK-0679), verlukast]
mean FEV1 [8]: significant improvement

COc1cc(C(=O)NS(=O)(=O)c2ccccc2C)ccc1Cc1cn(C)c2ccc(NC(=O)OC3CCCC3)cc12 [zafirlukast]
IL-2 expression [9]: able to decrease
development of symptoms and mediator release [10]: effectively inhibit
